Measured values as given in ChEMBL document CHEMBL1833927, “Constructing transferrin receptor targeted drug delivery system by using doxorubicin hydrochloride and vanadocene dichloride” (Bioorg Med Chem Lett, 2011).

Assays:
[1] = molecular target: Serotransferrin (Homo sapiens) (UniProt P02787); experiment: Binding affinity to human apo transferrin after 12 hrs at pH 4.8 by spectrofluorometer method
[2] = system: A549; experiment: Antiproliferative activity against human A549 cells by MTT assay in presence of human serum transferrin/apo transferrin; format: functional, cell-based
[3] = molecular target: Serotransferrin (Homo sapiens) (UniProt P02787); experiment: Binding affinity to human serum transferrin after 12 hrs at pH 7.4 by spectrofluorometer method
[4] = molecular target: Serotransferrin (Homo sapiens) (UniProt P02787); experiment: Binding affinity to human apo transferrin after 12 hrs at pH 7.4 by spectrofluorometer method
[5] = system: A549; experiment: Antiproliferative activity against human A549 cells by MTT assay; format: functional, cell-based
[6] = molecular target: Serotransferrin (Homo sapiens) (UniProt P02787); experiment: Binding affinity to human serum transferrin after 12 hrs at pH 4.8 by spectrofluorometer method

Serotransferrin (Homo sapiens), sequence (P02787 whole entry): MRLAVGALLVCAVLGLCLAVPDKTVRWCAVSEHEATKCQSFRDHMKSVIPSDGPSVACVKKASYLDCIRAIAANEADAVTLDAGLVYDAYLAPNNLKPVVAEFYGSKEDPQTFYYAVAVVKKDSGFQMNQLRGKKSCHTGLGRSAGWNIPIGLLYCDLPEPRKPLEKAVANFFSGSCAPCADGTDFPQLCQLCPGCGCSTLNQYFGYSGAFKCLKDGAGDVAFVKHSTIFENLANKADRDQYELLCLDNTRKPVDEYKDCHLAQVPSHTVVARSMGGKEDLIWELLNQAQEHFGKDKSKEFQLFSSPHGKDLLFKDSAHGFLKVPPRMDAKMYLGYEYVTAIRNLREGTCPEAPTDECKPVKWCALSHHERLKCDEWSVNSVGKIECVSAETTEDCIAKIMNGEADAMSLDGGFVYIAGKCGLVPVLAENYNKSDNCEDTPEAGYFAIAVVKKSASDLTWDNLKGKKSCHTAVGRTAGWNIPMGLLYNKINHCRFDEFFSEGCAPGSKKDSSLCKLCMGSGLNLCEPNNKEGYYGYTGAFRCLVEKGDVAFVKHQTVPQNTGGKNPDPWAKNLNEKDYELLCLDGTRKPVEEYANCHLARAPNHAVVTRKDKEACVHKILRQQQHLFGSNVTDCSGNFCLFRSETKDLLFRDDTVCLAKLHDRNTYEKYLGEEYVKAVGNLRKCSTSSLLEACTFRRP

Ka [1]: 271000 M⁻¹ | Ka [3]: 32600 M⁻¹ | Ka [4]: 74500 M⁻¹ | Ka [6]: 41900 M⁻¹
Structure (SMILES): COc1cccc2c1C(=O)c1c(O)c3c(c(O)c1C2=O)C[C@@](O)(C(=O)CO)C[C@@H]3O[C@H]1C[C@H](N)[C@H](O)[C@H](C)O1
Activity [2]: Dose-dependent effect | Activity [5]: Dose-dependent effect
